Laboratory results reported in patent publication US6399607B1, “Aminomethylene amide analogs of pyrazinamide with intracellular antimycobacterial activity against pyrazinamide-resistant mycobacteria combined with a rifamycin” (priority 1999, dated 2002).
Values after ≈ are worked out from the molar mass of the structure shown.

Experiments:
M. avium complex = experiment: MIC in modified 7H10 broth against M. avium complex (Tables 3, 4); type: cell-based, Mycobacterium avium; set-up: unit not given here
M. kansasii = experiment: MIC in modified 7H10 broth against M. kansasii (Tables 3, 4); type: cell-based, Mycobacterium kansasii; set-up: unit not given beside the values; settings: clinical isolate S
M. tuberculosis [1] = experiment: MIC in modified 7H10 broth against M. tuberculosis (Table 3); type: cell-based, Mycobacterium tuberculosis; set-up: MIC, M. tuberculosis ATCC 35801 / MIC, M. tuberculosis ATCC 27294: unit not given here; settings: for MIC, M. tuberculosis ATCC 27294: ATCC 27294 (H37RV, PZA susceptible), pH 5.8; for MIC, M. tuberculosis ATCC 35801: ATCC 35801, pH 5.8
M. tuberculosis [2] = experiment: microbe, parasite or virus in culture; type: cell-based, Mycobacterium tuberculosis; set-up: MIC, pansusceptible strain, pH 5.5 / MIC, Pansusceptible strain, pH 6.0 / MIC, Pansusceptible strain, pH 6.8: unit not given here; settings: for MIC, Pansusceptible strain, pH 6.0 / MIC, Pansusceptible strain, pH 6.8: 7H12 BACTEC broth, three pansusceptible strains; for MIC: Mycobacterium tuberculosis, same at pH 6.0 and 6.8
M. tuberculosis [3] = experiment: Murine model of tuberculosis, combination with KRM-1648 (RLZ) (FIG. 2); type: in vivo; settings: mice, in combination with KRM-1648 (Rifalazil, RLZ)
[4] = cited from earlier work
Mycobacterium avium = settings: Heifets et al, Am. Rev. Resp. Dis. 134: 1287-1288 (1986); cited from earlier work
[5] = system: Mtb organisms which have been phagocytized; settings: reduced efficacy after 4 to 7 days; cited from earlier work
[6] = Table 3, ATCC 49601 (serotype 1), modified 7H10 broth, pH 5.8
[7] = Table 3, strain 101 (serotype 1), modified 7H10 broth, pH 5.8
[8] = Table 3, modified 7H10 broth, pH 5.8

## O=C(NCN1CCCC1)c1cnccn1 [Compound 1, pyrazine-2-carboxylic acid (pyrrolidin-1-ylmethyl)-amide]
M. avium complex; [6]
  MIC, M. avium complex ATCC 49601: >128
M. avium complex; [7]
  MIC, M. avium complex 101: >128
M. avium complex; Table 4, ATCC 49601
  MIC, M. avium complex ATCC 49601: >128
M. avium complex; Table 4, strain 101
  MIC, M. avium complex 101: >128
M. kansasii; [8]
  MIC, M. kansasii S: 128
M. kansasii; Table 4
  MIC, M. kansasii S: 128
M. tuberculosis [1]
  MIC, M. tuberculosis ATCC 27294: 16
  MIC, M. tuberculosis ATCC 35801: 8
M. tuberculosis [2]
  MIC, Pansusceptible strain, pH 6.0: 100
  MIC, Pansusceptible strain, pH 6.8: 100
M. tuberculosis [2]; pansusceptible strain, pH 5.5
  MIC, pansusceptible strain, pH 5.5: 50
M. tuberculosis [3]
  reduction of CFUs / infection in murine model of tuberculosis: superior or equivalent to PZA in reducing CFUs

## CCN(CC)CNC(=O)c1cnccn1 [Compound 2, pyrazine-2-carboxylic acid diethylaminomethyl-amide]
M. avium complex; [6]
  MIC, M. avium complex ATCC 49601: 128
M. avium complex; [7]
  MIC, M. avium complex 101: 128
M. kansasii; [8]
  MIC, M. kansasii S: 128
M. tuberculosis [1]
  MIC, M. tuberculosis ATCC 27294: 16
  MIC, M. tuberculosis ATCC 35801: 2
M. tuberculosis [2]
  MIC, Pansusceptible strain, pH 6.0: 100
  MIC, Pansusceptible strain, pH 6.8: 100
M. tuberculosis [2]; 7H12 broth
  MIC: 100 mg/L (≈ 480 µM)
M. tuberculosis [3]
  reduction of CFUs / infection in murine model of tuberculosis: superior or equivalent to PZA in reducing CFUs

## O=C(NCN1CCOCC1)c1cnccn1 [Compound 4, (morpholin-4-ylmethyl)-amide]
M. avium complex; [6]
  MIC, M. avium complex ATCC 49601: >128
M. avium complex; [7]
  MIC, M. avium complex 101: >128
M. avium complex; Table 4, ATCC 49601
  MIC, M. avium complex ATCC 49601: >128
M. avium complex; Table 4, strain 101
  MIC, M. avium complex 101: 128
M. kansasii; [8]
  MIC, M. kansasii S: 128
M. kansasii; Table 4
  MIC, M. kansasii S: 128
M. tuberculosis [1]
  MIC, M. tuberculosis ATCC 27294: 32
  MIC, M. tuberculosis ATCC 35801: 16

## NC(=O)c1cnc(Cl)cn1 [Compound 5-Chloro-PZA, 5-chloro-pyrazinamide, reference compound]
M. avium complex; [6]
  MIC, M. avium complex ATCC 49601: 32
M. avium complex; [7]
  MIC, M. avium complex 101: 32
M. avium complex; Table 4, ATCC 49601
  MIC, M. avium complex ATCC 49601: 32
M. avium complex; Table 4, strain 101
  MIC, M. avium complex 101: 32
M. kansasii; [8]
  MIC, M. kansasii S: 32
M. kansasii; Table 4
  MIC, M. kansasii S: 32
M. tuberculosis [1]
  MIC, M. tuberculosis ATCC 27294: 16
  MIC, M. tuberculosis ATCC 35801: 16

## CCCCN(CC)CNC(=O)c1cnccn1 [Compound 5]
M. avium complex; Table 4, ATCC 49601
  MIC, M. avium complex ATCC 49601: >128
M. avium complex; Table 4, strain 101
  MIC, M. avium complex 101: 128
M. kansasii; Table 4
  MIC, M. kansasii S: >128

## CCCCN(C)CNC(=O)c1cnccn1 [Compound 6]
M. avium complex; Table 4, ATCC 49601
  MIC, M. avium complex ATCC 49601: >128
M. avium complex; Table 4, strain 101
  MIC, M. avium complex 101: 128
M. kansasii; Table 4
  MIC, M. kansasii S: 128

## CN1CCN(CNC(=O)c2cnccn2)CC1 [Compound 7, (piperazin-1-ylmethyl)-amide]
M. avium complex; Table 4, ATCC 49601
  MIC, M. avium complex ATCC 49601: >128
M. avium complex; Table 4, strain 101
  MIC, M. avium complex 101: >128
M. kansasii; Table 4
  MIC, M. kansasii S: >128

## CN(CNC(=O)c1cnccn1)Cc1ccccc1 [Compound 8, [(benzyl-methyl-amino)-methyl]-amide]
M. avium complex; Table 4, ATCC 49601
  MIC, M. avium complex ATCC 49601: 128
M. avium complex; Table 4, strain 101
  MIC, M. avium complex 101: 128
M. kansasii; Table 4
  MIC, M. kansasii S: 128

## CCCN(CCC)CNC(=O)c1cnccn1 [Compound 9, dipropylaminomethyl-amide]
M. avium complex; Table 4, ATCC 49601
  MIC, M. avium complex ATCC 49601: >128
M. avium complex; Table 4, strain 101
  MIC, M. avium complex 101: 128
M. kansasii; Table 4
  MIC, M. kansasii S: 128

## CCCCN(CCCC)CNC(=O)c1cnccn1 [Compound 10]
M. avium complex; Table 4, ATCC 49601
  MIC, M. avium complex ATCC 49601: >128
M. avium complex; Table 4, strain 101
  MIC, M. avium complex 101: >128
M. kansasii; Table 4
  MIC, M. kansasii S: >128

## CCN(CC)CNC(=O)c1cnc(N(CC)CC)cn1 [Compound 17, 5-diethylamino-pyrazinoic acid diethylaminomethyl-amide]
M. avium complex; [6]
  MIC, M. avium complex ATCC 49601: >128
M. avium complex; [7]
  MIC, M. avium complex 101: (>128
M. kansasii; [8]
  MIC, M. kansasii S: >128
M. tuberculosis [1]
  MIC, M. tuberculosis ATCC 27294: 64
  MIC, M. tuberculosis ATCC 35801: 16

## O=C(NCN1CCOCC1)c1cnccn1 [MZA, morphazinamide]
M. tuberculosis [2]; 7H12 broth
  MIC: 100 mg/L (≈ 450 µM)

## NC(=O)c1cnccn1 [PZA, Pyrazinamide]
M. avium complex; [6]
  MIC, M. avium complex ATCC 49601: >2048
M. avium complex; [7]
  MIC, M. avium complex 101: >2048
M. avium complex; Table 4, ATCC 49601
  MIC, M. avium complex ATCC 49601: >2048
M. avium complex; Table 4, strain 101
  MIC, M. avium complex 101: >2048
M. kansasii; [8]
  MIC, M. kansasii S: 2048
M. kansasii; Table 4
  MIC, M. kansasii S: 2048
M. tuberculosis [1]
  MIC, M. tuberculosis ATCC 27294: 16
  MIC, M. tuberculosis ATCC 35801: 32
M. tuberculosis [2]; 7H12 broth, pH 6.0 v. 6.8
  difference in MICs under different pH conditions: dramatic difference
M. tuberculosis [3]
  reduction of CFUs / infection in murine model of tuberculosis: effective in reducing infection
[4]
  pKa: 0.5
Mycobacterium avium
  activity against Mycobacterium avium: Neither is it active
[5]
  activity in macrophages: either weakly or clearly bacteriostatic in macrophages
